Test results as given in US9844529B2, “Combination therapy for ovarian cancer” (Eli Lilly And Company, priority 2011, dated 2017).

Legend:
SK-OV-3x.luc xenografts = experiment: SK-OV-3x.luc ovarian cancer xenograft tumor growth inhibition in mice; type: in vivo, mouse
Experimental: (§1) Human tumor mouse xenografts are generated from early passages of the following ovarian cancer cell lines: A-2780 (National Cancer Institute), SK-OV-3x.luc (SK-OV-3 cell line modified to express luciferase (#1, medium expressing), Indiana University). A-2780 ovarian cancer cells are grown in RPMI 1640 with L-glutamine, 25 mM HEPES (Invitrogen 22400-089) supplemented with 1 mM pyruvate and 10% Certified Fetal Bovine Serum (Gibco 16000, FBS). SK-OV-3x.luc cells (ovarian cancer cells) are grown in McCoy's 5A Medium with L-glutamine (Invitrogen 16600-082) supplemented with non-essential amino acids, 1 mM pyruvate and 10% FBS. Harlan athymic nude mice (6-7 weeks old) are housed with ad libitum feed and water, and are acclimated for one week prior to subcutaneous xenograft implantation in the right rear flank with a defined number of cells. A-2780 or SK-OV-3x.luc implants consist of 0.1 mL of cells (2 or 5×10^6 cells, respectively) in serum-free media with 0.1 mL MATRIGEL® (BD Biosciences) for a final volume of 0.2 mL. Tumors are allowed to develop to a volume of 120-150 mm^3 and are then randomized into treatment groups to attain a consistent average tumor size across all groups. Each treatment group of the SK-OV-3x.luc study is 12 animals; each group of the A-2780 study is 20 animals. Compound A is prepared weekly in hydroxyethylcellulose (HEC) 1%/TWEEN® 80 0.25%/Antifoam 0.05% (HEC/TWEEN®) and stored at 4° C. […] Compound A, 30 mg/kg, oral, TID×21/gemcitabine+cisplatin, 100+4 mg/kg, IP, QW×3* • *SK-OV-3x.luc study only Tumor volume and body weight are recorded and analyzed twice weekly using a data capture and analysis tool. Tumor volume (mm^3) is estimated by using the formula: ν=l×w^2×0.536 where l=larger of measured diameter and w=smaller of perpendicular diameter. Antitumor activity is calculated as a percent reduction of treated (T) tumor volume relative to untreated control (C) tumor volume [1−(T/C)]×100. […]

A-2780 xenografts = experiment: A-2780 ovarian cancer xenograft tumor growth inhibition in mice; type: in vivo, mouse; details: Compound A 10 mg/kg oral TID×21 alone
Experimental: as §1, with “cells.” for “cells. A-2780 or SK-OV-3x.luc implants consist of 0.1 mL of cells (2 or 5×10^6 cells, respectively) in serum-free media with 0.1 mL MATRIGEL® (BD Biosciences) for a final volume of 0.2 mL. Tumors are allowed to develop to a volume of 120-150 mm^3 and are then randomized into treatment groups to attain a consistent average tumor size across all groups. Each treatment group of the SK-OV-3x.luc study is 12 animals; each group of the A-2780 study is 20 animals. Compound A is prepared weekly in hydroxyethylcellulose (HEC) 1%/TWEEN® 80 0.25%/Antifoam 0.05% (HEC/TWEEN®) and stored at 4° C.”

## CC(C)(C)Cn1c(N)nc2ccc(-c3nc(C(C)(C)C)[nH]c3-c3ccc(F)cc3)nc21 [Compound A, 5-[2-tert-Butyl-5-(4-fluorophenyl)-1H-imidazol-4-yl]-3-(2,2-dimethylpropyl)imidazo[4,5-b]pyridin-2-amine dimethanesulfonate]
SK-OV-3x.luc xenografts; Compound A 30 mg/kg oral TID×21 alone, SK-OV-3x.luc
  Max % wt. loss: 1.4%
SK-OV-3x.luc xenografts; Compound A 30 mg/kg oral TID×21 alone, SK-OV-3x.luc, 3 weeks
  final tumor volume: 522 ± 54 mm^3
SK-OV-3x.luc xenografts; Compound A alone, 3 weeks, SK-OV-3x.luc xenografts
  final average tumor volume compared with vehicle control: not significantly different from vehicle control
A-2780 xenografts
  Max % wt. loss: 3.0%
A-2780 xenografts; 3 weeks
  final tumor volume: 1828 ± 208 mm^3
